{"source": "ChEMBL document CHEMBL1122948", "about": "“3,4-Diphenyl-1H-pyrazole-1-propanamine antidepressants” (J Med Chem, 1985)", "assay_type_in_all_cases": "functional", "key": {"Mus musculus [1]": {"tested_on": "Mus musculus", "assay": "Prevention of reserpine-induced ptosis in the mouse after peroral administration"}, "Rattus norvegicus [2]": {"organism": "Rattus norvegicus", "assay": "In vitro inhibitory activity against [3H]-5-HT uptake into crude synaptosomes from whole rat brain."}, "Rattus norvegicus [3]": {"organism": "Rattus norvegicus", "assay": "In vitro inhibitory activity against [3H]5-HT uptake into crude synaptosomes from whole rat brain."}, "Mus musculus [4]": {"tested_on": "Mus musculus", "assay": "Effect on tetrabenazine-induced suppression of locomotor activity in the mouse after peroral administration"}}, "data": [{"compound": "CN(C)CCCN1c2ccccc2CCc2ccccc21", "note": "[IMIPRAMINE]", "values": [{"measurement": "MED", "setting": "Mus musculus [1]", "value": "4 (mg of base) kg-1"}, {"measurement": "IC50", "setting": "Rattus norvegicus [2]", "value": 3100, "unit": "nM"}, {"measurement": "IC50", "setting": "Rattus norvegicus [3]", "value": 240, "unit": "nM"}, {"measurement": "MED", "setting": "Mus musculus [4]", "value": "4 (mg of base) kg-1"}]}]}
